# Laboratory results published in PMC3578427 (Journal of medicinal chemistry, 2011).
# Where a name gives a salt, the structure may show the parent alone.
# What was measured:
# hA2B AR = target: T1, hA2B AR (Homo sapiens, UniProt P29275)
# T1 sequence (P29275 1-332): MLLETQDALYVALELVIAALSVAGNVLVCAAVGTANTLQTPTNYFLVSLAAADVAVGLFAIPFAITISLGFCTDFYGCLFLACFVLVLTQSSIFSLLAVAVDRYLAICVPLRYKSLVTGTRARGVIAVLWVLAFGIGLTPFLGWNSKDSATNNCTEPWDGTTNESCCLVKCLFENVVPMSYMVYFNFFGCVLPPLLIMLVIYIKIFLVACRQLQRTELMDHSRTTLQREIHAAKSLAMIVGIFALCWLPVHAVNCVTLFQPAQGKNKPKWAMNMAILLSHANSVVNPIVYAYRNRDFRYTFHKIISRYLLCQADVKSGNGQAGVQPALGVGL
# human (h) A2B AR = settings: cited from earlier work
# Water solubility = format: physicochemical
# hA3 AR = target: T2, hA3 AR (Homo sapiens, UniProt P0DMS8)
# T2 sequence (P0DMS8 1-318): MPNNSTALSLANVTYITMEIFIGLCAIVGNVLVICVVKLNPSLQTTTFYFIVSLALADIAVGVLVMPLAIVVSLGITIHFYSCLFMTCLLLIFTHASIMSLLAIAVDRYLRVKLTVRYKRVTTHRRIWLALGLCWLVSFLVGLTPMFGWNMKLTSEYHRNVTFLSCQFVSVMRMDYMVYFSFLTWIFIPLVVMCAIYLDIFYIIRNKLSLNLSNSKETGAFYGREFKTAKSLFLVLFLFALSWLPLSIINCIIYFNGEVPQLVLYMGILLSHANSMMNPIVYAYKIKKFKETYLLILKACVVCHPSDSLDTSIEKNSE
Structure (SMILES),activity at hA2B AR in the functional assay (hA2B AR),further results
"Nc1nc(NC(=O)c2ccccc2)n2nc(-c3ccco3)nc2n1 [Compound 43, 5-amino-7-phenylcarbonylamino-2(2-furyl) 1,2,4-triazolo [1,5-a] 1,3,5-triazine trifluoroacetate]",poorly active,
"Nc1nc(N)n2nc(-c3ccco3)nc2n1 [Compound 41, 5,7-diamino-2(2-furyl) 1,2,4-triazolo [1,5-a] 1,3,5-triazine]",poorly active,
Nc1nc(NCCc2ccc(O)cc2)nc2nc(-c3ccco3)nn12 [ZM241385],,affinity at hA2B AR (human (h) A2B AR): 28 nM
"NCCOCCOCCNc1nc(N)n2nc(-c3ccco3)nc2n1.O=C(O)C(F)(F)F [Compound 20, 7-Amino-5-[(8-amino)triethylenoxy]-amino-2(2-furyl) 1,2,4-triazolo [1,5-a] 1,3,5-triazine trifluoroacetate]",,solubility (Water solubility): ≥ 10 mM
"CC(C)(C)OC(=O)NCCNc1nc(N)n2nc(-c3ccco3)nc2n1 [Compound 10, 7-Amino-5-[(2-tert-butyloxycarbonylamino)ethyl]-amino-2(2-furyl) 1,2,4-triazolo [1,5-a] 1,3,5-triazine]",,Ki (hA3 AR): ~1000 nM
"CC(C)(C)OC(=O)NCC1CCC(CNc2nc(N)n3nc(-c4ccco4)nc3n2)CC1 (stereo not drawn) [Compound 11, 7-Amino-5-[(4-tert-butyloxycarbonylaminomethyl)cyclohexylmethyl]-amino-2(2-furyl) 1,2,4-triazolo [1,5-a] 1,3,5-triazine]",poorly active,
